{"source": "patent US8017649B2", "about": "“Flavonoid compounds and uses thereof” (Howard Florey Institute of Experimental Physiology and …, priority 2005, dated 2011)", "molecules": {"B1": {"name": "BuCHE: butyryl cholinesterase, esterase used to cleave the adipate (protein, UniProt P06276 29-602, looked up)", "Cholinesterase": "EDDIIIATKNGKVRGMNLTVFGGTVTAFLGIPYAQPPLGRLRFKKPQSLTKWSDIWNATKYANSCCQNIDQSFPGFHGSEMWNPNTDLSEDCLYLNVWIPAPKPKNATVLIWIYGGGFQTGTSSLHVYDGKFLARVERVIVVSMNYRVGALGFLALPGNPEAPGNMGLFDQQLALQWVQKNIAAFGGNPKSVTLFGESAGAASVSLHLLSPGSHSLFTRAILQSGSFNAPWAVTSLYEARNRTLNLAKLTGCSRENETEIIKCLRNKDPQEILLNEAFVVPYGTPLSVNFGPTVDGDFLTDMPDILLELGQFKKTQILVGVNKDEGTAFLVYGAPGFSKDNNSIITRKEFQEGLKIFFPGVSEFGKESILFHYTDWVDDQRPENYREALGDVVGDYNFICPALEFTKKFSEWGNNAFFYYFEHRSSKLPWPEWMGVMHGYEIEFVFGLPLERRDNYTKAEEILSRSIVKRWANFAKYGNPNETQNNSTSWPVFKSTEQKYLTLNTESTRIMTKLRAQQCRFWTSFFPKVLEMTGNIDEAEWEWKAGFHRWNNYMMDWKNQFNDYTSKKESCVGL"}}, "key": {"[1]": {"test_system": "endothelium intact aortic rings", "assay": "Ca2+-induced contraction of rat aortic rings in Ca2+-free high-K+ solution", "format": "cell-based", "method": "To determine the effect of flavonoids on responses to the influx of extracellular Ca^2+, contractile responses to exogenous application of Ca^2+ were examined in the presence of flavonoids in Ca^2+-free high-K^+ solution (60 mM, KPSS). Aortic rings were initially equilibrated at a resting tension of 1 g in normal Ca^2+-free PSS for 45 minutes. The bath medium was then replaced with Ca^2+-free KPSS for 45 minutes to determine a reference contraction to Ca^2+ (3×10^−3 M). Following a 30 minute re-equilibration period with Ca^2+-free PSS, the cumulative contractile responses to Ca^2+ (10^−5−3×10^−3 M) were determined in KPSS in the presence of a range of concentrations (10^−8-10^−4 M) of vehicle, 3′,4′-dihydroxyflavonol, 3-hydroxyflavone-3-hemiadipate, 3′,4′-dihydroxy-3-hemiadipate, 3-hydroxyflavone-3-phosphate. A 20 minute incubation period was allowed for the flavonoids before examining the responses to Ca^2+.\nTo determine the effect of flavonoids on responses to the influx of extracellular Ca^2+, contractile responses to exogenous application of Ca^2+ were examined in the presence of flavonoids in Ca^2+-free high-K^+ solution (60 mM, K+-PSS). Aortic rings were initially equilibrated at a resting tension of 1 g in Ca^2+-free PSS for 45 minutes. The bath medium was then replaced with Ca^2+-free K+-PSS for 45 minutes to determine a reference contraction to added Ca^2+ (3 mM). Following a 30 minute re-equilibration period with Ca^2+-free PSS, the cumulative contractile responses to Ca^2+ (10^−5−3×10^−3 M) were determined in K^+ PSS in the presence of vehicle (0.1% DMSO), or a range of concentrations (10^−7-10^−4 M) of 3′-hydroxyflavonol, F3HA, DiOHF3HA or F3P. A 20 minute incubation period was allowed for the flavonoids before examining the responses to Ca^2+. Experiments were conducted in the presence and absence of BuCHE (1000 U/L) to cleave the adipate in F3HA and DiOHF3HA. In experiments using F3P, phosphatase (1000 U/L) was used in some experiments to cleave the phosphate."}, "aortic rings": {"test_system": "aortic rings", "assay": "Effect on SNP relaxation of precontracted rat aortic rings", "format": "cell-based", "conditions": "substance alone", "method": "(§1) After wash out and re-equilibration for 30 min, the aortic rings were then submaximally precontracted with PE and U46619, which were used to produce an active tension of 45-60% of the KPSS-induced maximum contraction. When investigating the effects of the flavonoids, flavonol, flavone-3-hemiadipate (F3HA), 3′, 4′-dihydroxyflavone, 3′,4′-dihydroxyflavonol, 3′,4′-dihydroxyflavone-3-hemiadipate (DiOHF3HA), and flavone-3-phosphate (F3P) on vasorelaxant responses, rings were incubated with one of the compounds for 20 mins before they were precontracted submaximally, followed by a cumulative-concentration response curve to ACh (100 nM-10 μM) or SNP ([…]). In experiments using F3P 1000U/L phosphatase was used in some experiments to cleave the phosphate. Some experiments were conducted in the presence and absence of butyryl cholinesterase (BuCHE, 1000 U/L) to cleave the adipate in DiOHF3HA and F3HA."}, "[2]": {"test_system": "endothelium intact aortic rings", "assay": "Effect on ACh relaxation of precontracted rat aortic rings", "format": "cell-based", "conditions": "substance alone", "method": "as §1"}, "[3]": {"test_system": "superoxide anions generated in rat aorta", "assay": "Superoxide anion production in rat isolated aortic segments (lucigenin chemiluminescence, NADPH)", "format": "cell-based", "conditions": "for superoxide levels: highest concentration tested (0.1 mM)", "method": "Superoxide anion production in rat isolated aortic segments was determined using lucigenin chemiluminescence. Aortic rings were prepared as described above and then placed in ice-cold Krebs-(N-[2-Hydroxyethyl]piperazine-N′-[2-ethanesulfonic acid] (HEPES buffer) (composition (mM); NaCl 99.0, KCl 4.7, KH2PO4 1.0, MgSO4·7H2O 1.2, D-glucose 11.0, NaHCO3 25.0, CaCl2·2H2O 2.5, Na-HEPES 20.0). Aortic rings were pre-incubated for 45 minutes at 37° C. with a pH 7.4, in Krebs-HEPES buffer containing diethylthiocarbamic acid (DETCA, 10^−3 M) to inactivate superoxide dismutase and β-nicotinamide adenine dinucleotide phosphate (NADPH, 10^−4 M) as a substrate for NADPH oxidase and either 3′,4′-dihydroxyflavonol (10^−4 M) as a positive control, vehicle, 3-hydroxyflavone-3-hemiadipate, 3′,4′-dihydroxy-3-hemiadipate, 3-hydroxyflavone-3-phosphate (10^−8-10^−4 M). Background photon emission was measured for 12 cycles in a 96-well Optiplate containing 0.3 ml per well of Krebs-HEPES buffer together with lucigenin (5×10^−5 M) and vehicle or flavonoid (10^−8-10^−4 M). Each cycle was counted every one minute. After background reading was completed the incubated aortic rings were transferred to the appropriate wells and photon emission was recounted as described above. The tissue was then placed in a 65° C. oven for 48 hours to allow superoxide production to be normalised to dry tissue weight.\nThe effects of vehicle, 3′,4′-dihydroxyflavone-3-hemiadipate (21) (DiOHF3HA, 10^−8 M-10^−4 M) and DiOHF (10^−4 M) in the presence and absence of Butyryl cholinesterase (BuCHE), 100, 300 and 1000 U/L) on the level of superoxide anions generated in rat isolated aortic segments in the presence of NADPH was expressed as a percentage of control. The method used was as described above except for the addition of the butyryl cholinesterase.\nThe effect of vehicle, 3-hydroxyflavone-3-phosphate (10^−8 to 10^−4 M) in the presence or absence of phosphatase (1000 U/L) on the level of superoxide anions generated in rat aorta in the presence of NADPH expressed as a percentage of control was determined as described above for the 3′,4′-dihydroxyflavone-3-hemiadipate."}, "[4]": {"test_system": "rat aorta precontracted with PE", "assay": "Direct relaxation of PE/U46619-precontracted rat aortic rings", "format": "cell-based", "conditions": "substance alone", "method": "Following testing of endothelial integrity, rings were repeatedly washed and re-equilibrated for 30 minutes before the addition of PE (10^−8−2×10^−7 M) and 9,11-dideoxy-9α, 11α-epoxymethano-prostaglandin F2α (U46619, 10^−9-10^−8 M) to produce an active force in the range of 40-60% of KPSS-induced contraction. The level of precontraction was matched between the various groups by adjusting the concentrations of PE and U46619. Cumulative concentration-response curves in the range 10^−8-10^−4 M were conducted for 3′,4′-dihydroxyflavonol, 3-hydroxyflavone-3-hemiadipate, 3′,4′-dihydroxy-3-hemiadipate, 3-hydroxyflavone-3-phosphate.\nExperiments were conducted in the presence of an esterase, butyryl cholinesterase (BuCHE, 1000 U/L) for the hemiadipate derivates and a phosphatase 1000 U/L) in the case of the phosphate derivatives.\nFollowing testing of endothelial integrity, rings were repeatedly washed and re-equilibrated for 30 minutes before the addition of PE (10^−8−2×10^−7 M) and 9,11-dideoxy-9α, 11α-epoxymethano-prostaglandin F2α (U46619, 10^−9-10^−7 M) to produce an active force in the range of 40-60% of KPSS-induced contraction. Cumulative concentration-response curves in the range 10^−7-10^−4 M were conducted for vehicle, 3′-hydroxyflavonol, F3HA, DiOHF3HA, F3P. Experiments were conducted in the presence and absence of 1000 U/L BuCHE to cleave the adipate in F3HA and DiOHF3HA. In experiments using F3P 1000 U/L phosphatase was used in some experiments to cleave the phosphate."}, "anaesthetised rats": {"test_system": "anaesthetised rats", "assay": "Arterial pressure and heart rate in anaesthetised rats after intravenous injection", "format": "in vivo, rat", "conditions": "intravenous, anaesthetised rats", "method": "A unit dosage of an aqueous solution of 3-hydroxyflavone-3-hemiadipate (15) was administered to a group of male anesthetized Sprague Dawley rats intravenously and the blood pressure monitored over a period of time.\nMale Sprague-Dawley rats (250-350 g) were anaesthetised with pentobarbitone sodium (60 mg kg^−1, ip). The trachea was isolated and cannulated with polyethylene tracheal tube (I.D. 2.0 mm), and the rat was allowed to breathe spontaneously.\nThe right carotid artery was cannulated and connected with a heparinised saline filled cannula (O.D. 0.75, I.D, 0.58 mm) and connected to a pressure transducer. Mean and phasic arterial pressure were continuously measured and recorded on a polygraph. The heart rate, was derived from the phasic arterial pressure using a tachometer.\nDiOHF3HA ([…]) was injected intravenously, allowing at least 30 min between injections, and the peak changes in mean arterial pressure and heart rate measured. […] In a separate group of experiments ACh (0.3 mg/kg iv) and phenylephrine (PE, […]) were injected before and 30 minutes after DiOHF3HA (3 mg/kg iv), a time when arterial pressure and heart rate had returned to control levels. […]"}, "[5]": {"conditions": "substance alone, no added esterase/phosphatase, up to 10^−4 M, NADPH"}}, "note": "Entries after “also recorded” stand apart in the source; their conditions may differ."}
{"molecule": "O=c1c(O)c(-c2ccccc2)oc2ccccc12", "note": "[Flavonol, reference compound]", "values": [{"measurement": "effect on Ca^2+-induced contraction", "setting": "[1]; alone, over the concentration range tested", "result": "concentration dependent decreases in calcium-induced contraction"}, {"measurement": "effect on relaxant response to SNP", "setting": "aortic rings", "result": "did not affect"}, {"measurement": "effect on relaxant response to ACh", "setting": "[2]", "result": "did not affect"}, {"measurement": "superoxide levels", "setting": "[3]", "result": "36±3 % of control"}, {"measurement": "effect on superoxide generation", "setting": "[3]; [5]", "result": "concentration dependent decreases in superoxide levels"}]}
{"molecule": "O=c1cc(-c2ccc(O)c(O)c2)oc2ccccc12", "note": "[DiOHFne, 3′,4′-dihydroxyflavone, reference compound]", "values": [{"measurement": "direct relaxing effect on precontracted vessels", "setting": "[4]", "result": "concentration-dependent relaxation of rat aorta which was weaker than the effect of DiOHF"}, {"measurement": "superoxide levels", "setting": "[3]", "result": "36±3 % of control"}, {"measurement": "effect on superoxide generation", "setting": "[3]; [5]", "result": "concentration dependent decreases in superoxide levels"}]}
{"molecule": "O=C(O)CCCCC(=O)Oc1c(-c2ccccc2)oc2ccccc2c1=O", "note": "[F3HA, Flavone-3-hemiadipate]", "values": [{"measurement": "effect on Ca^2+-induced contraction", "setting": "[1]; alone, highest concentration 10^−4 M", "result": "only inhibited contractile responses to increasing concentrations of extracellular calcium at the highest concentration tested"}, {"measurement": "effect on Ca^2+-induced contraction", "setting": "[1]; alone, highest concentration 10^−4 M, listed as flavone-3-hemiadipate", "result": "some inhibitory effect"}, {"measurement": "effect on Ca^2+-induced contraction", "setting": "[1]; alone, lower concentrations 10^−8 to 10^−5 M", "result": "did not effect Ca^2+ contraction"}, {"measurement": "effect on Ca^2+-induced contraction", "setting": "[1]; in the presence of BuCHE or phosphatase (1000 U/L)", "result": "inhibit calcium-induced contraction"}, {"measurement": "effect on superoxide generation", "setting": "[3]; in the presence of cleaving enzyme (BuCHE for hemiadipates, phosphatase for phosphate, 1000 U/L)", "result": "concentration dependent increase in the inhibitory effect"}, {"measurement": "effect on superoxide generation", "setting": "[3]; in the presence of cleaving enzyme (BuCHE for hemiadipates, phosphatase for phosphate, 1000 U/L), listed as flavone-3-hemiadipate", "result": "concentration-dependent inhibitory effect"}, {"measurement": "effect on superoxide generation", "setting": "[3]; [5]", "result": "no inhibitory effect on superoxide generation; also recorded: no antioxidant or vascular activity"}, {"measurement": "effect on superoxide generation", "setting": "[3]; substance alone, no added esterase/phosphatase, up to 10^−4 M, NADPH, listed as Flavone-3-hemiadipate", "result": "no effect on the superoxide production"}, {"measurement": "effect on superoxide generation", "setting": "[3]; substance alone, no added esterase/phosphatase, up to 10^−4 M, NADPH, listed as flavone-3-hemiadipate", "result": "no effect on the superoxide production at any concentration"}, {"measurement": "change in mean arterial pressure (MAP)", "setting": "anaesthetised rats", "result": "significant reduction in the blood pressure"}]}
{"molecule": "B1", "values": [{"measurement": "direct relaxing effect on precontracted vessels", "setting": "[4]", "result": "no effect on PE precontracted vessels"}]}
